Assay results taken from patent publication US12617783B2, “Heterocyclic GLP-1R agonists” (BIOMEA FUSION, INC., priority 2024, dated 2026).

Biological target: T1, human GLP-1R (Homo sapiens, UniProt P43220)
T1 construct: host or cells: HEK293
Assay: GLP-1R cAMP assay (Example B1a, HTRF, 30 min at room temperature)
Format: cell-based
Conditions: Table 1d, stereoisomer pairs; read-out: EC50
How it was run: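 Competitive HTRF read-out of cAMP after 30 min room-temperature stimulation, BETP absent, of human GLP-1R-HEK293 cells (1,000/well) in HEPES buffer with 500 μM IBMX and 0.1% BSA. Activation normalised to GLP-1(7-37) positive control. EC50 from 4-parameter non-linear regression.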

T1 sequence (P43220 24-463): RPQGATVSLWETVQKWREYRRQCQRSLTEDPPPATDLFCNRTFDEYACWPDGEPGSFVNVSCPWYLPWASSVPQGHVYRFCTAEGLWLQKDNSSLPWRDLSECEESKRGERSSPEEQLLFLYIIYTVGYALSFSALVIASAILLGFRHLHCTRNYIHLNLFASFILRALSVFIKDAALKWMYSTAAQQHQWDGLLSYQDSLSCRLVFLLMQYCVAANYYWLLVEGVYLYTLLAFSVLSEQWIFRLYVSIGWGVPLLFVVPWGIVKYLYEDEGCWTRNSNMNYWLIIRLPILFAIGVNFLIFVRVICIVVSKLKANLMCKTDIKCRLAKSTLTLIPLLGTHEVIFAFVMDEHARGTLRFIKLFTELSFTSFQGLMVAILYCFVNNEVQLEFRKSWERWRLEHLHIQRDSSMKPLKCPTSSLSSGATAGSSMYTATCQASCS

| Structure (SMILES) | EC50 [µM] |
| --- | --- |
| Cc1cc(-n2nc3c(c2-n2ccn(-c4ccc5c(cnn5C)c4F)c2=O)[C@H]2COC[C@@H](C3)N2C(=O)c2cc3cc([C@H]4CCOC(C)(C)C4)ccc3n2[C@@]2(c3noc(=O)[nH]3)C[C@@H]2C)cc(C)c1F [Compound 120, 3-((1S,2S)-1-(5-((S)-2,2-dimethyltetrahydro-2H-pyran-4-yl)-2-((4S,8R)-3-(3-(4-fluoro-1-methyl-1H-indazol-5-yl)-2-oxo-2,3-dihydro-1H-imidazol-1-yl)-2-(4-fluoro-3,5-dimethylphenyl)-2,4,5,7,8,9-hexahydro-4,8-epiminooxocino [5,4-c]pyrazole-10-carbonyl)-1H-indol-1-yl)-2-methylcyclopropyl)-1,2,4-oxadiazol-5(4H)-one] | > 10 |

Same assay, conditions: cAMP accumulation in HEK293 expressing human GLP-1R, no BETP, 30 min room temperature (Method B1a, compounds ID 1-609), Table 1; read-out: EC50

| Structure (SMILES) | EC50 [µM] |
| --- | --- |
| Cc1cc(-n2nc3c(c2-n2ccn(-c4ccc5c(cnn5C)c4F)c2=O)[C@@H]2CC[C@H](C3)N2S(=O)(=O)c2cc3cc(C4CCOC(C)(C)C4)ccc3n2[C@]2(c3noc(=O)[nH]3)C[C@@H]2C)cc(C)c1F (stereo partly drawn) [Compound 504, 3-[(1R,2S)-1-[5-(2,2-dimethyltetrahydropyran-4-yl)-2-[[(1S,8R)-4-(4-fluoro-3,5-dimethyl-phenyl)-3-[3-(4-fluoro-1-methyl-indazol-5-yl)-2-oxo-imidazol-1-yl]-4,5,11-triazatricyclo[6.2.1.02,6]undeca-2,5-dien-11-yl]sulfonyl]indol-1-yl]-2-methyl-cyclopropyl]-4H-1,2,4-oxadiazol-5-one] | 1.93 |
| Cc1cc(-n2nc3c(c2-n2ccn(-c4ccc5[nH]ncc5c4F)c2=O)[C@@H]2CC[C@H](C3)N2C(=O)c2cc3cc([C@H]4CCOC(C)(C)C4)ccc3n2[C@@]2(c3noc(=O)[nH]3)C[C@@H]2C)cc(C)c1F [Compound 406, 3-((1S,2S)-1-(5-((S)-2,2-dimethyltetrahydro-2H-pyran-4-yl)-2-((4S,7R)-3-(3-(4-fluoro-1H-indazol-5-yl)-2-oxo-2,3-dihydro-1H-imidazol-1-yl)-2-(4-fluoro-3,5-dimethylphenyl)-2,4,5,6,7,8-hexahydro-4,7-epiminocyclohepta [c]pyrazole-9-carbonyl)-1H-indol-1-yl)-2-methylcyclopropyl)-1,2,4-oxadiazol-5 (4H)-one] | 0.0184 |
| CNC(=O)[C@]1(n2c(C(=O)N3[C@@H]4CC[C@H]3c3c(nn(-c5cc(C)c(F)c(C)c5)c3-n3ccn(-c5ccc6c(cnn6C)c5F)c3=O)C4)cc3cc([C@H]4CCOC(C)(C)C4)ccc32)C[C@@H]1C [Compound 244, cis-(1S,2S)-1-[5-[(4S)-2,2-dimethyltetrahydropyran-4-yl]-2-[(1S,8R)-4-(4-fluoro-3,5-dimethyl-phenyl)-3-[3-(4-fluoro-1-methyl-indazol-5-yl)-2-oxo-imidazol-1-yl]-4,5,11-triazatricyclo[6.2.1.02,6]undeca-2,5-diene-11-carbonyl]indol-1-yl]-N,2-dimethyl-cyclopropanecarboxamide] | 0.39 |
| CC[C@@H]1C[C@@]1(c1noc(=O)[nH]1)n1c(C(=O)N2[C@@H]3CC[C@H]2c2c(nn(-c4cc(C)c(F)c(C)c4)c2-n2ccn(-c4ccc5c(cnn5C)c4F)c2=O)C3)cc2cc([C@H]3CCOC(C)(C)C3)ccc21 [Compound 435, 3-[(1R,2R)-1-[5-[(4S)-2,2-dimethyltetrahydropyran-4-yl]-2-[(1S,8R)-4-(4-fluoro-3,5-dimethyl-phenyl)-3-[3-(4-fluoro-1-methyl-indazol-5-yl)-2-oxo-imidazol-1-yl]-4,5,11-triazatricyclo[6.2.1.02,6]undeca-2,5-diene-11-carbonyl]indol-1-yl]-2-ethyl-cyclopropyl]-4H-1,2,4-oxadiazol-5-one] | 3.87 |
| Cc1cc(-n2nc3c(c2-n2ccn(-c4ccc5c(cnn5C)c4F)c2=O)[C@@H]2CC[C@H](C3)N2C(=O)c2cc3cc([C@H]4CCOC(C)(C)C4)ccc3n2C2(c3noc(=O)[nH]3)CC2)cc(C)c1F [Compound 114, 3-(1-(5-((S)-2,2-dimethyltetrahydro-2H-pyran-4-yl)-2-((4S,7R)-3-(3-(4-fluoro-1-methyl-1H-indazol-5-yl)-2-oxo-2,3-dihydro-1H-imidazol-1-yl)-2-(4-fluoro-3,5-dimethylphenyl)-2,4,5,6,7,8-hexahydro-4,7-epiminocyclohepta [c]pyrazole-9-carbonyl)-1H-indol-1-yl)cyclopropyl)-1,2,4-oxadiazol-5 (4H)-one] | 0.593 |
| Cc1cc(-n2nc3c(c2-n2ccn(-c4ccc5c(cnn5C)c4F)c2=O)[C@H]2CC[C@@H](C3)N2C(=O)c2cc3cc([C@H]4CCOC5(CC5)C4)ccc3n2[C@]2(c3noc(=O)[nH]3)C[C@H]2C)cc(C)c1F [Compound 520, 3-[(1R,2R)-1-[2-[(1R,8S)-4-(4-fluoro-3,5-dimethyl-phenyl)-3-[3-(4-fluoro-1-methyl-indazol-5-yl)-2-oxo-imidazol-1-yl]-4,5,11-triazatricyclo[6.2.1.02,6]undeca-2,5-diene-11-carbonyl]-5-[(7S)-4-oxaspiro[2.5]octan-7-yl]indol-1-yl]-2-methyl-cyclopropyl]-4H-1,2,4-oxadiazol-5-one] | ≥ 10 |
| Cc1cc(-n2nc3c(c2-n2ccn(-c4ccc5c(cnn5C)c4F)c2=O)[C@@H]2CC[C@H](C3)N2C(=O)c2cc3nc(C4CCOC(C)(C)C4)ccc3n2[C@@]2(c3noc(=O)[nH]3)C[C@@H]2C)cc(C)c1F (stereo partly drawn) [Compound 210, 3-[(1S,2S)-1-[5-(2,2-dimethyltetrahydropyran-4-yl)-2-[(1S,8R)-4-(4-fluoro-3,5-dimethyl-phenyl)-3-[3-(4-fluoro-1-methyl-indazol-5-yl)-2-oxo-imidazol-1-yl]-4,5,11-triazatricyclo[6.2.1.02,6]undeca-2,5-diene-11-carbonyl]pyrrolo[3,2-b]pyridin-1-yl]-2-methyl-cyclopropyl]-4H-1,2,4-oxadiazol-5-one] | 0.959 |
| Cc1cc(-n2nc3c(c2-n2ccn(-c4ccc5c(cnn5C)c4F)c2=O)[C@H]2COC[C@@H](C3)N2C(=O)c2cc3cc([C@H]4CCOC(C)(C)C4)ccc3n2[C@@]2(c3noc(=O)[nH]3)C[C@@H]2C)cc(C)c1F [Compound 120, 3-((1S,2S)-1-(5-((S)-2,2-dimethyltetrahydro-2H-pyran-4-yl)-2-((4S,8R)-3-(3-(4-fluoro-1-methyl-1H-indazol-5-yl)-2-oxo-2,3-dihydro-1H-imidazol-1-yl)-2-(4-fluoro-3,5-dimethylphenyl)-2,4,5,7,8,9-hexahydro-4,8-epiminooxocino [5,4-c]pyrazole-10-carbonyl)-1H-indol-1-yl)-2-methylcyclopropyl)-1,2,4-oxadiazol-5(4H)-one] | > 10 |
| Cc1cc(-n2nc3c(c2-n2ccn(-c4ccc5c(cnn5C)c4F)c2=O)[C@@H]2CC[C@H](C3)N2Cc2cc3cc([C@H]4CCOC(C)(C)C4)ccc3n2[C@@]2(c3noc(=O)[nH]3)C[C@@H]2C)cc(C)c1F [Compound 417, 3-((1S,2S)-1-(5-((S)-2,2-dimethyltetrahydro-2H-pyran-4-yl)-2-(((4S,7R)-3-(3-(4-fluoro-1-methyl-1H-indazol-5-yl)-2-oxo-2,3-dihydro-1H-imidazol-1-yl)-2-(4-fluoro-3,5-dimethylphenyl)-2,4,5,6,7,8-hexahydro-4,7-epiminocyclohepta [c]pyrazol-9-yl)methyl)-1H-indol-1-yl)-2-methylcyclopropyl)-1,2,4-oxadiazol-5(4H)-one] | 0.11 |
| Cc1cc(-n2nc3c(c2-n2ccn(-c4ccc5c(cnn5C)c4F)c2=O)[C@@H]2CCC[C@H](C3)N2S(=O)(=O)c2cc3cc(N4CCOC5(CC5)C4)ccc3n2[C@]2(c3noc(=O)[nH]3)C[C@@H]2C)cc(C)c1F [Compound 538, 3-[(1R,2S)-1-[2-[[(1S,8R)-4-(4-fluoro-3,5-dimethyl-phenyl)-3-[3-(4-fluoro-1-methyl-indazol-5-yl)-2-oxo-imidazol-1-yl]-4,5,12-triazatricyclo[6.3.1.02,6]dodeca-2,5-dien-12-yl]sulfonyl]-5-(4-oxa-7-azaspiro[2.5]octan-7-yl)indol-1-yl]-2-methyl-cyclopropyl]-4H-1,2,4-oxadiazol-5-one] | ≥ 10 |
| Cc1cc(-n2nc3c(c2-n2ccn(-c4ccc5c(cnn5C)c4F)c2=O)[C@@H]2CC[C@H](C3)N2C(=O)c2cc3cc([C@H]4CCOC4(C)C)ccc3n2[C@@]2(c3noc(=O)[nH]3)C[C@@H]2C)cc(C)c1F [Compound 419, 3-[(1S,2S)-1-[5-[(3R)-2,2-dimethyltetrahydrofuran-3-yl]-2-[(1S,8R)-4-(4-fluoro-3,5-dimethyl-phenyl)-3-[3-(4-fluoro-1-methyl-indazol-5-yl)-2-oxo-imidazol-1-yl]-4,5,11-triazatricyclo[6.2.1.02,6]undeca-2,5-diene-11-carbonyl]indol-1-yl]-2-methyl-cyclopropyl]-4H-1,2,4-oxadiazol-5-one] | ≥ 10 |
| Cc1cc(-n2nc3c(c2-n2ccn(-c4ccc5cnncc5c4)c2=O)[C@@H]2CC[C@H](C3)N2C(=O)c2cc3cc([C@H]4CCOC(C)(C)C4)ccc3n2C2(c3noc(=O)[nH]3)CC2)cc(C)c1F [Compound 124, 3-(1-(5-((S)-2,2-dimethyltetrahydro-2H-pyran-4-yl)-2-((4S,7R)-2-(4-fluoro-3,5-dimethylphenyl)-3-(2-oxo-3-(phthalazin-6-yl)-2,3-dihydro-1H-imidazol-1-yl)-2,4,5,6,7,8-hexahydro-4,7-epiminocyclohepta [c]pyrazole-9-carbonyl)-1H-indol-1-yl)cyclopropyl)-1,2,4-oxadiazol-5 (4H)-one] | 1.38 |
| Cc1cc(-n2nc3c(c2-c2ncn(-c4ccc5c(cnn5C)c4F)c2C)[C@H](C)N(C(=O)c2cc4cc(N5CCS(=O)(=O)CC5)ccc4n2C2(c4noc(=O)[nH]4)CC2)CC3)cc(C)c1F [Compound 108, 3-[1-[5-(1,1-dioxo-1,4-thiazinan-4-yl)-2-[(4S)-2-(4-fluoro-3,5-dimethyl-phenyl)-3-[1-(4-fluoro-1-methyl-indazol-5-yl)-5-methyl-imidazol-4-yl]-4-methyl-6,7-dihydro-4H-pyrazolo[4,3-c]pyridine-5-carbonyl]indol-1-yl]cyclopropyl]-4H-1,2,4-oxadiazol-5-one] | > 10 |
| Cc1cc(-n2nc3c(c2-n2ccn(-c4ccc5c(cnn5C)c4F)c2=O)[C@@H]2CC[C@H](C3)N2C(=O)c2cc3sc(C4CCOC(C)(C)C4)nc3n2[C@@]2(c3noc(=O)[nH]3)C[C@@H]2C)cc(C)c1F (stereo partly drawn) [Compound 245, 3-[(1S,2S)-1-[2-(2,2-dimethyltetrahydropyran-4-yl)-5-[(1S,8R)-4-(4-fluoro-3,5-dimethyl-phenyl)-3-[3-(4-fluoro-1-methyl-indazol-5-yl)-2-oxo-imidazol-1-yl]-4,5,11-triazatricyclo[6.2.1.02,6]undeca-2,5-diene-11-carbonyl]pyrrolo[2,3-d]thiazol-4-yl]-2-methyl-cyclopropyl]-4H-1,2,4-oxadiazol-5-one] | 5.07 |

Same assay, conditions: text to Table 1d, bridge atoms configured out of the plane or toward the reader

| Structure (SMILES) | potency |
| --- | --- |
| Cc1cc(-n2nc3c(c2-n2ccn(-c4ccc5c(cnn5C)c4F)c2=O)[C@H]2COC[C@@H](C3)N2C(=O)c2cc3cc([C@H]4CCOC(C)(C)C4)ccc3n2[C@@]2(c3noc(=O)[nH]3)C[C@@H]2C)cc(C)c1F [Compound 120, 3-((1S,2S)-1-(5-((S)-2,2-dimethyltetrahydro-2H-pyran-4-yl)-2-((4S,8R)-3-(3-(4-fluoro-1-methyl-1H-indazol-5-yl)-2-oxo-2,3-dihydro-1H-imidazol-1-yl)-2-(4-fluoro-3,5-dimethylphenyl)-2,4,5,7,8,9-hexahydro-4,8-epiminooxocino [5,4-c]pyrazole-10-carbonyl)-1H-indol-1-yl)-2-methylcyclopropyl)-1,2,4-oxadiazol-5(4H)-one] | little or no potency |
